Source: patent US10968203B2, “Pyrimidinyl-pyridyloxy-naphthyl compounds and methods of treating IRE1-related diseases and disorders” (Genentech, Inc., priority 2017, dated 2021)
Counter-ions that a name gives are not always drawn.

What follows are molecules tested on XBP1s-luc 293 LUC (assay: cellular PD assay, XBP1s-LUC reporter (Example 903)). Conditions: Table 1; read-out: XBP1s-luc 293 LUC (IC50).
Format: cell-based
Procedure, shortened: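 A luciferase fusion, in frame and expressed only when the XBP1 transcript is spliced, served as the readout of cellular IRE1α activity in an XBP1-Luc reporter line.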

| SMILES | IC50 |
| --- | --- |
| Cc1ccc2c(NC(=O)CC(C)(C)C)cccc2c1Oc1ncccc1-c1ccnc(N[C@@H]2CNC[C@H](C)C2)n1 [Example 302, 3,3-Dimethyl-N-(6-methyl-5-((3-(2-(((3S,5R)-5-methylpiperidin-3-yl)amino)pyrimidin-4-yl)pyridin-2-yl)oxy)naphthalen-1-yl)butanamide] | 93.5 nM |
| Cc1ccc2c(NCCCC(F)(F)F)cccc2c1Oc1ncccc1-c1ccnc(N[C@H]2CCCNC2)n1 [Example 344, (S)-4-(2-((2-Methyl-5-((4,4,4-trifluorobutyl)amino)naphthalen-1-yl)oxy)pyridin-3-yl)-N-(piperidin-3-yl)pyrimidin-2-amine] | 350 nM |
| Cc1ccc2c(NC(=O)N3CCCCC3)cccc2c1Oc1ncccc1-c1ccnc(N[C@H]2CCCNC2)n1 [Example 116, (S)—N-(6-Methyl-5-((3-(2-(piperidin-3-ylamino)pyrimidin-4-yl)pyridin-2-yl)oxy)naphthalen-1-yl)piperidine-1-carboxamide hydrochloride] | 430 nM |
| CCCS(=O)(=O)Nc1c(F)ccc2c(Oc3ncccc3-c3ccnc(N[C@@H]4CNCC[C@H]4C)n3)c(C)ccc12 (single isomer, unassigned) [Example 327] | 254 nM |
| CCCS(=O)(=O)Nc1cccc2c(Oc3ncc(C)cc3-c3ccnc(N[C@H]4CCCNC4)n3)c(C)ccc12 [Example 240, (S)—N-(6-Methyl-5-((5-methyl-3-(2-(piperidin-3-ylamino)pyrimidin-4-yl)pyridin-2-yl)oxy)naphthalen-1-yl)propane-1-sulfonamide] | 167 nM |
| Cc1ccc2c(NC(=O)C3(C)CC3)c(F)ccc2c1Oc1ncccc1-c1ccnc(N[C@H]2CCCNC2)n1 [Example 365, (S)—N-(2-Fluoro-6-methyl-5-((3-(2-(piperidin-3-ylamino)pyrimidin-4-yl)pyridin-2-yl)oxy)naphthalen-1-yl)-1-methylcyclopropanecarboxamide] | 438 nM |
| Cc1ccc2c(NS(=O)(=O)C3CCCCC3)c(F)ccc2c1Oc1ncccc1-c1ccnc(N[C@H]2CCCNC2)n1 [Example 282, (S)—N-(2-Fluoro-6-methyl-5-((3-(2-(piperidin-3-ylamino)pyrimidin-4-yl)pyridin-2-yl)oxy)naphthalen-1-yl)cyclohexanesulfonamide] | 24.8 nM |
| Cc1ccc2c(NS(=O)(=O)C3CCCCC3)c(F)ccc2c1Oc1ncccc1-c1ccnc(N[C@@H]2CNC[C@H](C)C2)n1 [Example 317, N-(2-Fluoro-6-methyl-5-((3-(2-(((3S,5R)-5-methylpiperidin-3-yl)amino)pyrimidin-4-yl)pyridin-2-yl)oxy)naphthalen-1-yl)cyclohexanesulfonamide] | 17.6 nM |
| Cc1cc(NS(=O)(=O)C2CCC2)c2ccccc2c1Oc1ncccc1-c1ccnc(N[C@H]2CC[C@H](N)CC2)n1 [Example 111, N-(4-((3-(2-(((trans)-4-Aminocyclohexyl)amino)pyrimidin-4-yl)pyridin-2-yl)oxy)-3-methylnaphthalen-1-yl)cyclobutanesulfonamide hydrochloride] | 447 nM |
| Cc1ccc2c(NC(=O)[C@@H]3CCC(F)(F)C3)cccc2c1Oc1ncccc1-c1ccnc(N[C@H]2CCCNC2)n1 (single isomer, unassigned) [Example 269] | 336 nM |
| Cc1ccc2c(NC(=O)[C@H]3CC3(C)C)cccc2c1Oc1ncccc1-c1ccnc(N[C@H]2CCCNC2)n1 (single isomer, unassigned) [Example 288] | 185 nM |
| Cc1ccc2c(NC(=O)C3CCC3)cccc2c1Oc1ncccc1-c1ccnc(N[C@H]2CCCNC2)n1 [Example 131, (S)—N-(6-Methyl-5-((3-(2-(piperidin-3-ylamino)pyrimidin-4-yl)pyridin-2-yl)oxy)naphthalen-1-yl)cyclobutanecarboxamide] | 153 nM |
| Cc1cn(C)nc1Nc1cccc2c(Oc3ncccc3-c3ccnc(N[C@H]4CCCNC4)n3)c(C)ccc12 [Example 358, (S)-4-(2-((5-((1,4-Dimethyl-1H-pyrazol-3-yl)amino)-2-methylnaphthalen-1-yl)oxy)pyridin-3-yl)-N-(piperidin-3-yl)pyrimidin-2-amine] | 266 nM |
| Cc1ccc2c(NS(=O)(=O)Cc3cccc(Cl)c3)cccc2c1Oc1ncccc1-c1ccnc(N[C@H]2CCCNC2)n1 [Example 144, (S)-1-(3-Chlorophenyl)-N-(6-methyl-5-((3-(2-(piperidin-3-ylamino)pyrimidin-4-yl)pyridin-2-yl)oxy)naphthalen-1-yl)methanesulfonamide] | 25 nM |
| Cc1nc(CNc2cccc3c(Oc4ncccc4-c4ccnc(N[C@H]5CCCNC5)n4)c(C)ccc23)no1 [Example 320, 4-[2-[[2-Methyl-5-[(5-methyl-1,2,4-oxadiazol-3-yl)methylamino]-1-naphthyl]oxy]-3-pyridyl]-N-[(3S)-3-piperidyl]pyrimidin-2-amine] | 740 nM |
| Cc1ccc2c(NC(=O)CC(C)(C)C)c(F)ccc2c1Oc1ncccc1-c1ccnc(N[C@@H]2CNC[C@@H](F)C2)n1 (single isomer, unassigned) [Example 322] | 40.7 nM |
| CCOC(=O)Nc1cccc2c(Oc3ncccc3-c3ccnc(N[C@H]4CCCNC4)n3)c(C)ccc12 [Example 153, (S)-Ethyl (6-methyl-5-((3-(2-(piperidin-3-ylamino)pyrimidin-4-yl)pyridin-2-yl)oxy)naphthalen-1-yl)carbamate] | 143 nM |

Same assay, conditions: Table 2; read-out: XBP1s-luc 293 LUC (IC50)

| SMILES | IC50 |
| --- | --- |
| Cc1ccc2c(NS(=O)(=O)Cc3ccccn3)c(F)ccc2c1Oc1ncccc1-c1ccnc(N[C@H]2CCCNC2)n1 [Example 494, (S)—N-(2-Fluoro-6-methyl-5-((3-(2-(piperidin-3-ylamino)pyrimidin-4-yl)pyridin-2-yl)oxy)naphthalen-1-yl)-1-(pyridin-2-yl)methanesulfonamide hydrochloride] | 12.5 nM |
| Cc1ccc2c(NS(=O)(=O)N(C)C3CC3)c(F)ccc2c1Oc1ncccc1-c1ccnc(N[C@H]2CCCNC2)n1 [Example 440, 4-[2-[[5-[[Cyclopropyl(methyl)sulfamoyl]amino]-6-fluoro-2-methyl-1-naphthyl]oxy]-3-pyridyl]-2-[[(3S)-3-piperidyl]amino]pyrimidine hydrochloride] | 26 nM |
| CCO[C@@H](CNc1cccc2c(Oc3ncccc3-c3ccnc(N[C@H]4CCCNC4)n3)c(C)ccc12)C(F)(F)F [Example 445, 4-(2-((5-(((S)-2-Ethoxy-3,3,3-trifluoropropyl)amino)-2-methylnaphthalen-1-yl)oxy)pyridin-3-yl)-N—((S)-piperidin-3-yl)pyrimidin-2-amine hydrochloride] | 78 nM |
| Cc1ccc2c(NC[C@H](O)C(F)F)cccc2c1Oc1ncccc1-c1ccnc(N[C@H]2CCCNC2)n1 (single isomer, unassigned) [Example 475, hydrochloride] | 19 nM |
| Cc1c(F)c(NS(=O)(=O)CCC(F)(F)F)c2ccccc2c1Oc1ncccc1-c1ccnc(N[C@H]2CC[C@H](N)CC2)n1 [Example 483, N-(4-((3-(2-(((1r,4r)-4-Aminocyclohexyl)amino)pyrimidin-4-yl)pyridin-2-yl)oxy)-2-fluoro-3-methylnaphthalen-1-yl)-3,3,3-trifluoropropane-1-sulfonamide] | 146 nM |
| Cc1ccc2c(NS(=O)(=O)Cc3ccn(C)n3)c(F)ccc2c1Oc1ncccc1-c1ccnc(N[C@H]2CCCNC2)n1 [Example 449, N-[2-Fluoro-6-methyl-5-[[3-[2-[[(3S)-3-piperidyl]amino]pyrimidin-4-yl]-2-pyridyl]oxy]-1-naphthyl]-1-(1-methylpyrazol-3-yl)methanesulfonamide hydrochloride] | 25 nM |
| Cc1nc(CS(=O)(=O)Nc2c(F)ccc3c(Oc4ncccc4-c4ccnc(N[C@H]5CCCNC5)n4)c(C)ccc23)cs1 [Example 411, (S)—N-(2-Fluoro-6-methyl-5-((3-(2-(piperidin-3-ylamino)pyrimidin-4-yl)pyridin-2-yl)oxy)naphthalen-1-yl)-1-(2-methylthiazol-4-yl)methanesulfonamide hydrochloride] | 12 nM |
| Cc1ccc2c(NS(=O)(=O)CCC(C)(F)F)c(F)ccc2c1Oc1ncccc1-c1ccnc(N[C@H]2CCCNC2)n1 [Example 442, (S)-3,3-Difluoro-N-(2-fluoro-6-methyl-5-((3-(2-(piperidin-3-ylamino)pyrimidin-4-yl)pyridin-2-yl)oxy)naphthalen-1-yl)butane-1-sulfonamide hydrochloride] | 40 nM |
| Cc1ccc2c(NC(=O)C3CC34CC4)c(F)ccc2c1Oc1ncccc1-c1ccnc(N[C@H]2CCCNC2)n1 (stereo partly drawn) [Example 465, N-(2-Fluoro-6-methyl-5-((3-(2-(((S)-piperidin-3-yl)amino)pyrimidin-4-yl)pyridin-2-yl)oxy)naphthalen-1-yl)spiro[2.2]pentane-1-carboxamide] | 57 nM |
| Cc1ccc2c(NS(=O)(=O)CCC3CC3)c(F)ccc2c1Oc1ncccc1-c1ccnc(N[C@H]2CCCNC2)n1 [Example 399, (S)-2-Cyclopropyl-N-(2-fluoro-6-methyl-5-((3-(2-(piperidin-3-ylamino)pyrimidin-4-yl)pyridin-2-yl)oxy)naphthalen-1-yl)ethanesulfonamide hydrochloride] | 72 nM |
| Cc1ccc2c(NS(=O)(=O)CCC(C)(F)F)c(F)ccc2c1Oc1ncccc1-c1ccnc(N[C@H]2CNC[C@H](F)C2)n1 (single isomer, unassigned) [Example 497, hydrochloride] | 5100 nM |
| Cc1ccc2c(NS(=O)(=O)CCC(F)F)c(F)ccc2c1Oc1ncccc1-c1ccnc(N[C@@H]2CNC[C@H](C)C2)n1 [Example 472, 3,3-Difluoro-N-(2-fluoro-6-methyl-5-((3-(2-(((3S,5R)-5-methylpiperidin-3-yl)amino)pyrimidin-4-yl)pyridin-2-yl)oxy)naphthalen-1-yl)propane-1-sulfonamide] | 8 nM |
| Cc1ccc2c(N[C@@H]3CCC[C@H]3O)cccc2c1Oc1ncccc1-c1ccnc(N[C@H]2CCCNC2)n1 (single isomer, unassigned) [Example 395, hydrochloride] | 109 nM |
| Cc1ccc2c(NC(=O)/C=C/C(F)(F)F)cccc2c1Oc1ncccc1-c1ccnc(N[C@H]2CCCNC2)n1 [Example 407, (S)-4,4,4-Trifluoro-N-(6-methyl-5-((3-(2-(piperidin-3-ylamino)pyrimidin-4-yl)pyridin-2-yl)oxy)naphthalen-1-yl)but-2-enamide] | 221 nM |
